The source made the active and inactive calls. The rule behind the calls is not given here.
Experiments:
Mus musculus [1] = assay: Anticonvulsant activity against Swiss mouse seizure model assessed as protection at 100 mg/kg, ip pretreated for 0.25 hrs by 6 Hz psychomotor seizure test; format: functional, organism-based
Mus musculus [2] = assay: Anticonvulsant activity in ip dosed Swiss mouse assessed as reduction in clonic seizures at 0.5 hrs by subcutaneous pentylenetetrazole seizure test; format: functional
[3] = Protective index, ratio of TD50 for neurotoxicity in ip dosed Swiss mouse to ED50 for anticonvulsant activity in ip dosed MES Swiss mouse model at 0.25 hrs; format: toxicity, organism-based; settings: in vivo, read-out: Ratio TD50/ED50
[4] = Protective index, ratio of TD50 for neurotoxicity in ip dosed Swiss mouse to ED50 for anticonvulsant activity in ip dosed scPTZ Swiss mouse model at 0.25 hrs; format: toxicity, organism-based; settings: in vivo, read-out: Ratio TD50/ED50
[5] = Protective index, ratio of TD50 for neurotoxicity in ip dosed Swiss mouse to ED50 for anticonvulsant activity in ip dosed Swiss mouse 6 Hz psychomotor seizure model at 0.25 hrs; format: toxicity, organism-based; settings: in vivo, read-out: Ratio TD50/ED50
Mus musculus [6] = assay: Anticonvulsant activity in ip dosed Swiss mouse assessed as protection against maximal electroshock-induced seizures at 0.5 hrs; format: functional
[7] = Neurotoxicity in ip dosed Swiss mouse seizure model assessed as motor impairment pretreated for 0.25 hrs measured within 60 s by chimney test; format: toxicity, organism-based; settings: in vivo
[8] = Protective index, ratio of TD50 for neurotoxicity in ip dosed Swiss mouse to ED50 for anticonvulsant activity in ip dosed Swiss mouse 6 Hz psychomotor seizure model at 0.5 hrs; format: toxicity, organism-based; settings: in vivo, read-out: Ratio TD50/ED50
Mus musculus [9] = assay: Anticonvulsant activity in Swiss mouse assessed as protection against maximal electroshock-induced seizures at 300 mg/kg, ip pretreated for 0.5 hrs; format: functional, organism-based
Mus musculus [10] = assay: Anticonvulsant activity in Swiss mouse assessed as protection against maximal electroshock-induced seizures at 300 mg/kg, ip pretreated for 2 hrs; format: functional, organism-based
Mus musculus [11] = assay: Anticonvulsant activity in Swiss mouse assessed as protection against maximal electroshock-induced seizures at 100 mg/kg, ip pretreated for 2 hrs; format: functional, organism-based
Mus musculus [12] = assay: Anticonvulsant activity against Swiss mouse seizure model assessed as protection at 100 mg/kg, ip pretreated for 0.5 hrs by 6 Hz psychomotor seizure test; format: functional, organism-based
Mus musculus [13] = assay: Anticonvulsant activity in ip dosed Swiss mouse assessed as prolong latency to first seizure episode pretreated for 0.5 hrs measured after 30 mins by subcutaneous pentylenetetrazole seizure test; format: functional, organism-based
Mus musculus [14] = assay: Anticonvulsant activity in Swiss mouse assessed as prolong latency to first seizure episode at 60 mg/kg pretreated for 0.5 hrs measured after 30 mins by subcutaneous pentylenetetrazole seizure test; format: functional, organism-based
Mus musculus [15] = assay: Anticonvulsant activity against ip dosed Swiss mouse seizure model assessed as protection at 0.25 hrs by 6 Hz psychomotor seizure test; format: functional
Mus musculus [16] = assay: Anticonvulsant activity in ip dosed Swiss mouse assessed as protection against maximal electroshock-induced seizures at 0.25 hrs; format: functional
Mus musculus [17] = assay: Anticonvulsant activity in ip dosed Swiss mouse assessed as reduction in clonic seizures at 0.25 hrs by subcutaneous pentylenetetrazole seizure test; format: functional
Mus musculus [18] = assay: Anticonvulsant activity against ip dosed Swiss mouse seizure model assessed as protection at 0.5 hrs by 6 Hz psychomotor seizure test; format: functional
[19] = Neurotoxicity in ip dosed Swiss mouse seizure model assessed as motor impairment pretreated for 0.5 hrs measured within 60 s by chimney test; format: toxicity, organism-based; settings: in vivo
[20] = Protective index, ratio of TD50 for neurotoxicity in ip dosed Swiss mouse to ED50 for anticonvulsant activity in ip dosed MES Swiss mouse model at 0.5 hrs; format: toxicity, organism-based; settings: in vivo, read-out: Ratio TD50/ED50
[21] = Protective index, ratio of TD50 for neurotoxicity in ip dosed Swiss mouse to ED50 for anticonvulsant activity in ip dosed scPTZ Swiss mouse model at 0.5 hrs; format: toxicity, organism-based; settings: in vivo, read-out: Ratio TD50/ED50
Mus musculus [22] = assay: Potency index, ratio of ethosuximide ED50 to compound ED50 for anticonvulsant activity in ip dosed scPTZ Swiss mouse model at 0.25 hrs; format: functional
Rattus norvegicus [23] = organism: Rattus norvegicus; assay: Displacement of [3H]Batrachotoxinin from sodium channel site 2 in rat cerebral cortex at 100 uM after 60 mins by scintillation counting method; format: tissue-based
Rattus norvegicus [24] = organism: Rattus norvegicus; assay: Displacement of [3H]Batrachotoxinin from sodium channel site 2 in rat cerebral cortex at 500 uM after 60 mins by scintillation counting method; format: tissue-based
Rattus norvegicus [25] = organism: Rattus norvegicus; assay: Displacement of [3H]nitrendipine from calcium channel L-Type dihydropyridine site in rat cerebral cortex at 100 uM after 120 mins by scintillation counting method; format: tissue-based
Rattus norvegicus [26] = organism: Rattus norvegicus; assay: Displacement of [3H]nitrendipine from calcium channel L-Type dihydropyridine site in rat cerebral cortex at 500 uM after 120 mins by scintillation counting method; format: tissue-based
[27] = target: T1, Glutamate NMDA receptor (Rattus norvegicus) (UniProt P35439+Q00959+Q00960+Q00961+Q62645+Q8VHN2+Q9R1M7); assay: Displacement of [3H]CGP-39653 from NMDA receptor in rat cerebral cortex at 100 uM after 60 mins by scintillation counting method; format: tissue-based
[28] = target: T1, Glutamate NMDA receptor (Rattus norvegicus); assay: Displacement of [3H]CGP-39653 from NMDA receptor in rat cerebral cortex at 500 uM after 60 mins by scintillation counting method; format: tissue-based
Mus musculus [29] = assay: Antinociceptive activity in ip dosed Swiss mouse assessed as reduction of formalin-induced licking at MES ED50 pretreated for 0.5 hrs measured during 1 to 5 mins; format: functional, organism-based
Mus musculus [30] = assay: Antinociceptive activity in ip dosed Swiss mouse assessed as reduction of formalin-induced licking at MES ED50 pretreated for 0.5 hrs measured during 15 to 20 mins; format: functional; set-up: scale not given: the % may be the effect or the level left

CC1CC(=O)N(C(C)C(=O)N2CCN(c3cccc(C(F)(F)F)c3)CC2)C1=O (stereo not given)
Activity (Mus musculus [1]): Active | ED50 (Mus musculus [2]): 51.6 mg/kg | selectivity ratio at 0.25 h [3]: 3.49 | selectivity ratio at 0.25 h [4]: 4.33 | selectivity ratio at 0.25 h [5]: 11.6 | ED50 (Mus musculus [6]): 74.8 mg/kg | TD50 at 0.25 h [7]: 285 mg/kg | selectivity ratio at 0.5 h [8]: 12.7 | Activity (Mus musculus [9]): Active | Activity (Mus musculus [10]): Active | Activity (Mus musculus [11]): inactive | Activity (Mus musculus [12]): Active | Activity (Mus musculus [13]): Dose-dependent effect | Activity (Mus musculus [14]): Active | ED50 (Mus musculus [15]): 24.6 mg/kg | ED50 (Mus musculus [16]): 81.7 mg/kg | ED50 (Mus musculus [17]): 65.7 mg/kg | ED50 (Mus musculus [18]): 16.8 mg/kg | TD50 at 0.5 h [19]: 213 mg/kg | selectivity ratio at 0.5 h [20]: 2.85 | selectivity ratio at 0.5 h [21]: 4.13 | Ratio ED50 (Mus musculus [22]): 2.2 | inhibition (Rattus norvegicus [23]): 29.9% | inhibition (Rattus norvegicus [24]): 76.3% | inhibition (Rattus norvegicus [25]): 38.1% | inhibition (Rattus norvegicus [26]): 78.5% | Activity [27]: inactive | Activity [28]: inactive | Activity (Mus musculus [29]): inactive | Activity (Mus musculus [30]): 84%

From ChEMBL document CHEMBL3745637, “New hybrid molecules with anticonvulsant and antinociceptive activity derived from 3-methyl- or 3,3-dimethyl-1-[1-oxo-1-(4-phenylpiperazin-1-yl)propan-2-yl]pyrrolidine-2,5-diones” (Bioorg Med Chem, 2016)
